From patent US10149876B2, “Tripterygium wilfordii extracts to overcome chemotherapy resistance” (WESTERN UNIVERSITY OF HEALTH SCIENCES, priority 2012, dated 2018)
“And” between values parts separate entries of the source, which are not always exact repeats. Equal values may be shown once. Read-outs that look alike come from different tables or passages of the source.

Columns and labels:
DU145 cells = assay: SRB cell viability assay, docetaxel-sensitive DU145 cells; format: cell-based; settings: Homo sapiens; for viability at 1 pM: docetaxel 0.001 nM 72 h; for viability at 0.000333 µM: docetaxel 0.333 nM 72 h; for viability at 0.001 µM: docetaxel 1 nM 72 h; for viability at 0.00333 µM: docetaxel 3.33 nM 72 h; for viability at 0.01 µM: docetaxel 10 nM 72 h; for viability at 0.0333 µM: docetaxel 33.3 nM 72 h; for viability at 0.1 µM: docetaxel 100 nM 72 h; for IC50: DU-145
Method: The chemotherapeutic drugs that were tested for chemosensitization in combination with LTG-E were docetaxel, daunorubicin, Herceptin®, and lapatinib. […] Table 17 also contains the serially-diluted concentrations of drugs that each cell line was tested against.
Using the methods described in Example 2, the chemosensitizing effect of LGT-E pretreatment on docetaxel-treated DU145 cells was studied. […] Table 20 reports control data obtained from DU145 cells that were not pre-treated with LGT-E. FIG. 7 summarizes the data of Tables 19 and 20 in a graphical format.

DU145-TxR cells = assay: SRB cell viability assay, docetaxel-resistant DU145-TxR cells; format: cell-based; settings: Homo sapiens; for IC50: docetaxel, DU-145-TxR; for viability at 1 pM / viability at 0.0001 µM / viability at 0.000333 µM / viability at 0.001 µM / viability at 0.00333 µM / viability at 0.01 µM / viability at 0.0333 µM / viability at 0.1 µM: read-out: % viable, DU145-TxR; for viability at 1 pM: docetaxel 0.001 nM 72 h; for viability at 0.0001 µM: docetaxel 0.1 nM 72 h; for viability at 0.000333 µM: docetaxel 0.333 nM 72 h; for viability at 0.001 µM: docetaxel 1 nM 72 h; for viability at 0.00333 µM: docetaxel 3.33 nM 72 h; for viability at 0.01 µM: docetaxel 10 nM 72 h; for viability at 0.0333 µM: docetaxel 33.3 nM 72 h; for viability at 0.1 µM: docetaxel 100 nM 72 h
Method: Using the methods described in Example 2, the chemosensitizing effect of LGT-E pretreatment on docetaxel-treated DU145-TrX cells was studied. […] The DU145-TxR cells were plated at passage 38. […] Tables 6, 8, and 10 report control data obtained from DU145-TxR cells that were not pre-treated with LGT-E. FIG. 4 summarizes the data of Tables 5-10 in a graphical format.

[1] = DU-145, read-out: % viable, DU145, LGT-E 50 μg/ml pre-treatment
[2] = DU-145, read-out: % viable, DU145, no LGT-E pre-treatment

In the case of `CC(=O)O[C@@]12CO[C@@H]1C[C@H](O)[C@@]1(C)C(=O)[C@H](O)C3=C(C)[C@@H](OC(=O)[C@H](O)[C@@H](NC(=O)OC(C)(C)C)c4ccccc4)C[C@@](O)([C@@H](OC(=O)c4ccccc4)[C@H]21)C3(C)C` [Docetaxel, docetaxel], the viability at 1 pM (DU145 cells; [1]) is reported as 100%, the viability at 0.000333 µM (DU145 cells; [1]) is reported as 100% and the viability at 0.001 µM (DU145 cells; [1]) is reported as 97.4%. For the same molecule, the viability at 0.00333 µM (DU145 cells; [1]) was 54%, the viability at 0.01 µM (DU145 cells; [1]) was 23.9% and the viability at 0.0333 µM (DU145 cells; [1]) was 9.6%. For the same molecule, the viability at 0.1 µM (DU145 cells; [1]) was 9.3%, the viability at 1 pM (DU145 cells; [2]) was 100% and the viability at 0.0001 µM (DU145 cells; DU-145, read-out: % viable, DU145, no LGT-E pre-treatment, docetaxel 0.1 nM 72 h) was 100%. It also gave a viability at 0.000333 µM (DU145 cells; [2]) of 101%, a viability at 0.001 µM (DU145 cells; [2]) of 100% and a viability at 0.00333 µM (DU145 cells; [2]) of 86.9%. It also gave a viability at 0.01 µM (DU145 cells; [2]) of 44.4%, a viability at 0.0333 µM (DU145 cells; [2]) of 24.1% and a viability at 0.1 µM (DU145 cells; [2]) of 21.8%. For the same molecule, the IC50 (DU145 cells; read-out: IC50 of drug when cells pre-treated with Chemosensitizing Agent before drug treatment) was 3.39 nM and 0.00274 µg/mL, the IC50 (DU145 cells; read-out: IC50 of drug when cells treated with drug only) was 6.65 nM and 0.00537 µg/mL and the IC50 (DU145-TxR cells; LGT-E 25 μg/ml pre-treatment, read-out: IC50 of drug when cells pre-treated with Chemosensitizing Agent before drug treatment) was 5.76 nM and 0.00465 µg/mL. The IC50 (DU145-TxR cells; line of LGT-E 25 μg/ml, read-out: IC50 of drug when cells treated with drug only) was > 100 nM and ≥ 0.0808 µg/mL, the viability at 1 pM (DU145-TxR cells; LGT-E 25 μg/ml pre-treatment) was 100% and the viability at 0.0001 µM (DU145-TxR cells; LGT-E 25 μg/ml pre-treatment) was 102%. The viability at 0.000333 µM (DU145-TxR cells; LGT-E 25 μg/ml pre-treatment) was 102%, the viability at 0.001 µM (DU145-TxR cells; LGT-E 25 μg/ml pre-treatment) was 98.6% and the viability at 0.00333 µM (DU145-TxR cells; LGT-E 25 μg/ml pre-treatment) was 74.7%. For the same molecule, the viability at 0.01 µM (DU145-TxR cells; LGT-E 25 μg/ml pre-treatment) was 33.5%, the viability at 0.0333 µM (DU145-TxR cells; LGT-E 25 μg/ml pre-treatment) was 13.7% and the viability at 0.1 µM (DU145-TxR cells; LGT-E 25 μg/ml pre-treatment) was 6.2%. For the same molecule, the viability at 1 pM (DU145-TxR cells; LGT-E 50 μg/ml pre-treatment) was 100%, the viability at 0.000333 µM (DU145-TxR cells; LGT-E 50 μg/ml pre-treatment) was 97% and the viability at 0.001 µM (DU145-TxR cells; LGT-E 50 μg/ml pre-treatment) was 82.1%. For the same molecule, the viability at 0.00333 µM (DU145-TxR cells; LGT-E 50 μg/ml pre-treatment) was 34.4%, the viability at 0.01 µM (DU145-TxR cells; LGT-E 50 μg/ml pre-treatment) was 11.6% and the viability at 0.0333 µM (DU145-TxR cells; LGT-E 50 μg/ml pre-treatment) was 5.4%. For the same molecule, the viability at 0.1 µM (DU145-TxR cells; LGT-E 50 μg/ml pre-treatment) was 5.5%, the viability at 1 pM (DU145-TxR cells; LGT-E […] pre-treatment) was 100% and the viability at 0.0001 µM (DU145-TxR cells; LGT-E […] pre-treatment) was 98.1%. It also gave a viability at 0.000333 µM (DU145-TxR cells; LGT-E […] pre-treatment) of 96%, a viability at 0.001 µM (DU145-TxR cells; LGT-E […] pre-treatment) of 98.1% and a viability at 0.00333 µM (DU145-TxR cells; LGT-E […] pre-treatment) of 91.5%. The viability at 0.01 µM (DU145-TxR cells; LGT-E […] pre-treatment) was 82.9%, the viability at 0.0333 µM (DU145-TxR cells; LGT-E […] pre-treatment) was 41% and the viability at 0.1 µM (DU145-TxR cells; LGT-E […] pre-treatment) was 17.5%. The viability at 1 pM (DU145-TxR cells; no pre-treatment (Table 6)) was 100%, the viability at 0.0001 µM (DU145-TxR cells; no pre-treatment (Table 6)) was 103% and the viability at 0.000333 µM (DU145-TxR cells; no pre-treatment (Table 6)) was 102%. For the same molecule, the viability at 0.001 µM (DU145-TxR cells; no pre-treatment (Table 6)) was 102%, the viability at 0.00333 µM (DU145-TxR cells; no pre-treatment (Table 6)) was 102% and the viability at 0.01 µM (DU145-TxR cells; no pre-treatment (Table 6)) was 102%. For the same molecule, the viability at 0.0333 µM (DU145-TxR cells; no pre-treatment (Table 6)) was 101%, the viability at 0.1 µM (DU145-TxR cells; no pre-treatment (Table 6)) was 94.8% and the viability at 1 pM (DU145-TxR cells; no pre-treatment (Table 8)) was 100%. For the same molecule, the viability at 0.0001 µM (DU145-TxR cells; no pre-treatment (Table 8)) was 102%, the viability at 0.000333 µM (DU145-TxR cells; no pre-treatment (Table 8)) was 102% and the viability at 0.001 µM (DU145-TxR cells; no pre-treatment (Table 8)) was 102%. The viability at 0.00333 µM (DU145-TxR cells; no pre-treatment (Table 8)) was 102%, the viability at 0.01 µM (DU145-TxR cells; no pre-treatment (Table 8)) was 100% and the viability at 0.0333 µM (DU145-TxR cells; no pre-treatment (Table 8)) was 98.1%. For the same molecule, the viability at 0.1 µM (DU145-TxR cells; no pre-treatment (Table 8)) was 91%, the viability at 1 pM (DU145-TxR cells; no pre-treatment (Table 10)) was 100% and the viability at 0.0001 µM (DU145-TxR cells; no pre-treatment (Table 10)) was 101%. The viability at 0.000333 µM (DU145-TxR cells; no pre-treatment (Table 10)) was 97.7%, the viability at 0.001 µM (DU145-TxR cells; no pre-treatment (Table 10)) was 99.3% and the viability at 0.00333 µM (DU145-TxR cells; no pre-treatment (Table 10)) was 98.8%. The viability at 0.01 µM (DU145-TxR cells; no pre-treatment (Table 10)) was 97.2%, the viability at 0.0333 µM (DU145-TxR cells; no pre-treatment (Table 10)) was 95.4% and the viability at 0.1 µM (DU145-TxR cells; no pre-treatment (Table 10)) was 90.9%.
